# Data taken from ChEMBL document CHEMBL3885861, “Open TG-GATES”.
# Species: Rattus norvegicus
# Assay: Open TG-GATES - Regimen: Daily Repeat
# Assay type: toxicity, organism-based, Sprague-Dawley
# Parameters: regimen Daily Repeat, gender Male, age 6 weeks
# Conditions: in vivo, po, 3 mg/kg, route gavage, dose level Low; for APTT / Bas / Eos / Fbg / Hb / Ht / Lym / MCH / MCHC / MCV / Mono / Neu / PT / Plat / RBC / Ret / WBC: tissue Blood; for KIDNEY_L / KIDNEY_R / KIDNEY_TOTAL: tissue Kidney; for LIVER: tissue Liver; for A/G / ALP / ALT / AST / BUN / CRE / Ca / Cl / DBIL / GLC / IP / K / LDH / Na / PL / RALB / TBIL / TC / TG / TP / gamma-GTP: tissue Plasma
structure (smiles),measurement,setting,value
C=CCO [ALLYL ALCOHOL],TERMINAL_BW,"72 h, time 3 day",238.5 g
same,APTT,"72 h, time 3 day",20.1 s
same,Bas,"72 h, time 3 day",0%
same,Eos,"72 h, time 3 day",1.2%
same,Fbg,"72 h, time 3 day",228.4 mg/dL
same,Hb,"72 h, time 3 day",13.8 g/dL
same,Ht,"72 h, time 3 day",40%
same,Lym,"72 h, time 3 day",77.8%
same,MCH,"72 h, time 3 day",20.8 pg
same,MCHC,"72 h, time 3 day",34.5%
same,MCV,"72 h, time 3 day",60.4 fL
same,Mono,"72 h, time 3 day",2.8%
same,Neu,"72 h, time 3 day",17.8%
same,PT,"72 h, time 3 day",11.6 s
same,Plat,"72 h, time 3 day",135.9 x10_4/uL
same,RBC,"72 h, time 3 day",662 x10_4/ul
same,Ret,"72 h, time 3 day",5.2%
same,WBC,"72 h, time 3 day",117.9 x10_2/uL
same,KIDNEY_L,"72 h, time 3 day",1 g
same,KIDNEY_R,"72 h, time 3 day",1 g
same,KIDNEY_TOTAL,"72 h, time 3 day",2 g
same,LIVER,"72 h, time 3 day",11.5 g
same,A/G,"72 h, time 3 day",1.6
same,ALP,"72 h, time 3 day",1089.8 IU/L
same,ALT,"72 h, time 3 day",37.6 IU/L
same,AST,"72 h, time 3 day",63.8 IU/L
same,BUN,"72 h, time 3 day",16.2 mg/dL
same,CRE,"72 h, time 3 day",0.5 mg/dL
same,Ca,"72 h, time 3 day",10.8 mg/dL
same,Cl,"72 h, time 3 day",103.2 meq/L
same,DBIL,"72 h, time 3 day",0.076 mg/dL
same,GLC,"72 h, time 3 day",225.8 mg/dL
same,IP,"72 h, time 3 day",7.1 mg/dL
same,K,"72 h, time 3 day",4.3 meq/L
same,LDH,"72 h, time 3 day",204.6 IU/L
same,Na,"72 h, time 3 day",140.4 meq/L
same,PL,"72 h, time 3 day",153 mg/dL
same,RALB,"72 h, time 3 day",3.4 g/dL
same,TBIL,"72 h, time 3 day",0.1 mg/dL
same,TC,"72 h, time 3 day",79.2 mg/dL
same,TG,"72 h, time 3 day",91.6 mg/dL
same,TP,"72 h, time 3 day",5.6 g/dL
same,gamma-GTP,"72 h, time 3 day",0.6 IU/L
same,TERMINAL_BW,"[…], time 7 day",274.1 g
same,TERMINAL_BW,"[…], time 14 day",304.7 g
same,TERMINAL_BW,"[…], time 28 day",380.5 g
same,APTT,"[…], time 7 day",19.5 s
same,Bas,"[…], time 7 day",0%
same,Eos,"[…], time 7 day",1%
same,Fbg,"[…], time 7 day",220.8 mg/dL
same,Hb,"[…], time 7 day",13.7 g/dL
same,Ht,"[…], time 7 day",40.3%
same,Lym,"[…], time 7 day",80.6%
same,MCH,"[…], time 7 day",20.5 pg
same,MCHC,"[…], time 7 day",34%
same,MCV,"[…], time 7 day",60.4 fL
same,Mono,"[…], time 7 day",2.6%
same,Neu,"[…], time 7 day",15.8%
same,PT,"[…], time 7 day",11.9 s
same,Plat,"[…], time 7 day",135 x10_4/uL
same,RBC,"[…], time 7 day",667.2 x10_4/ul
same,Ret,"[…], time 7 day",5.1%
same,WBC,"[…], time 7 day",128.3 x10_2/uL
same,APTT,"[…], time 14 day",20.1 s
same,Bas,"[…], time 14 day",0%
same,Eos,"[…], time 14 day",1.4%
same,Fbg,"[…], time 14 day",225.8 mg/dL
same,Hb,"[…], time 14 day",14.5 g/dL
same,Ht,"[…], time 14 day",42%
same,Lym,"[…], time 14 day",85.4%
same,MCH,"[…], time 14 day",20.3 pg
same,MCHC,"[…], time 14 day",34.6%
same,MCV,"[…], time 14 day",58.7 fL
same,Mono,"[…], time 14 day",2.4%
same,Neu,"[…], time 14 day",10.6%
same,PT,"[…], time 14 day",12 s
same,Plat,"[…], time 14 day",113.9 x10_4/uL
same,RBC,"[…], time 14 day",715.2 x10_4/ul
same,Ret,"[…], time 14 day",3.5%
same,WBC,"[…], time 14 day",110.3 x10_2/uL
same,APTT,"[…], time 28 day",20.8 s
same,Bas,"[…], time 28 day",0%
same,Eos,"[…], time 28 day",1%
same,Fbg,"[…], time 28 day",216.8 mg/dL
same,Hb,"[…], time 28 day",15.2 g/dL
same,Ht,"[…], time 28 day",43.8%
same,Lym,"[…], time 28 day",80%
same,MCH,"[…], time 28 day",19.3 pg
same,MCHC,"[…], time 28 day",34.7%
same,MCV,"[…], time 28 day",55.5 fL
same,Mono,"[…], time 28 day",2.2%
same,Neu,"[…], time 28 day",16%
same,PT,"[…], time 28 day",12 s
same,Plat,"[…], time 28 day",106.9 x10_4/uL
same,RBC,"[…], time 28 day",787.6 x10_4/ul
same,Ret,"[…], time 28 day",2.7%
same,WBC,"[…], time 28 day",103.8 x10_2/uL
same,KIDNEY_L,"[…], time 7 day",1.1 g
same,KIDNEY_R,"[…], time 7 day",1.1 g
same,KIDNEY_TOTAL,"[…], time 7 day",2.2 g
same,KIDNEY_L,"[…], time 14 day",1.2 g
same,KIDNEY_R,"[…], time 14 day",1.1 g
same,KIDNEY_TOTAL,"[…], time 14 day",2.3 g
same,KIDNEY_L,"[…], time 28 day",1.3 g
same,KIDNEY_R,"[…], time 28 day",1.4 g
same,KIDNEY_TOTAL,"[…], time 28 day",2.7 g
same,LIVER,"[…], time 7 day",13 g
same,LIVER,"[…], time 14 day",13 g
same,LIVER,"[…], time 28 day",15.8 g
same,A/G,"[…], time 7 day",1.6
same,ALP,"[…], time 7 day",883.8 IU/L
same,ALT,"[…], time 7 day",31.2 IU/L
same,AST,"[…], time 7 day",61.4 IU/L
same,BUN,"[…], time 7 day",16.2 mg/dL
same,CRE,"[…], time 7 day",0.4 mg/dL
same,Ca,"[…], time 7 day",10.9 mg/dL
same,Cl,"[…], time 7 day",101.6 meq/L
same,DBIL,"[…], time 7 day",0.088 mg/dL
same,GLC,"[…], time 7 day",221.4 mg/dL
same,IP,"[…], time 7 day",6.9 mg/dL
same,K,"[…], time 7 day",4.1 meq/L
same,LDH,"[…], time 7 day",192 IU/L
same,Na,"[…], time 7 day",141 meq/L
same,PL,"[…], time 7 day",145.6 mg/dL
same,RALB,"[…], time 7 day",3.5 g/dL
same,TBIL,"[…], time 7 day",0.1 mg/dL
same,TC,"[…], time 7 day",70.4 mg/dL
same,TG,"[…], time 7 day",120.6 mg/dL
same,TP,"[…], time 7 day",5.8 g/dL
same,gamma-GTP,"[…], time 7 day",0.8 IU/L
same,A/G,"[…], time 14 day",1.5
same,ALP,"[…], time 14 day",736.6 IU/L
same,ALT,"[…], time 14 day",39 IU/L
same,AST,"[…], time 14 day",60.2 IU/L
same,BUN,"[…], time 14 day",16.2 mg/dL
same,CRE,"[…], time 14 day",0.4 mg/dL
same,Ca,"[…], time 14 day",10.6 mg/dL
same,Cl,"[…], time 14 day",102.6 meq/L
same,DBIL,"[…], time 14 day",0.07 mg/dL
same,GLC,"[…], time 14 day",222.2 mg/dL
same,IP,"[…], time 14 day",6.3 mg/dL
same,K,"[…], time 14 day",3.6 meq/L
same,LDH,"[…], time 14 day",214.8 IU/L
same,Na,"[…], time 14 day",141.2 meq/L
same,PL,"[…], time 14 day",143 mg/dL
same,RALB,"[…], time 14 day",3.5 g/dL
same,TBIL,"[…], time 14 day",0.1 mg/dL
same,TC,"[…], time 14 day",74.8 mg/dL
same,TG,"[…], time 14 day",86.6 mg/dL
same,TP,"[…], time 14 day",5.9 g/dL
same,gamma-GTP,"[…], time 14 day",1.2 IU/L
same,A/G,"[…], time 28 day",1.2
same,ALP,"[…], time 28 day",620 IU/L
same,ALT,"[…], time 28 day",35.8 IU/L
same,AST,"[…], time 28 day",57.8 IU/L
same,BUN,"[…], time 28 day",15.2 mg/dL
same,CRE,"[…], time 28 day",0.5 mg/dL
same,Ca,"[…], time 28 day",10.4 mg/dL
same,Cl,"[…], time 28 day",102.8 meq/L
same,DBIL,"[…], time 28 day",0.076 mg/dL
same,GLC,"[…], time 28 day",218.2 mg/dL
same,IP,"[…], time 28 day",5.8 mg/dL
same,K,"[…], time 28 day",3.7 meq/L
same,LDH,"[…], time 28 day",210.8 IU/L
same,Na,"[…], time 28 day",139.8 meq/L
same,PL,"[…], time 28 day",138.6 mg/dL
same,RALB,"[…], time 28 day",3.4 g/dL
same,TBIL,"[…], time 28 day",0.1 mg/dL
same,TC,"[…], time 28 day",65.8 mg/dL
same,TG,"[…], time 28 day",114.4 mg/dL
same,TP,"[…], time 28 day",6.2 g/dL
same,gamma-GTP,"[…], time 28 day",0.6 IU/L
